Test results: patent US11648395B2, “Electrode assemblies for neuromodulation” (Cardionomic, Inc., priority 2018, dated 2023)

Tested on: normal, non-HF ovine model
Test: Correlation of right and left ventricle contractility (max dP/dt) after injection, heartbeat-by-heartbeat
Assay type: in vivo
Conditions: max(dP/dt) used as surrogate for contractility, after injection (calcium: 5 mL)
Source text: The correlation was a heartbeat-by-heartbeat analysis. Pressure measurements, taken by a Millar catheter comprising a MEMS pressure sensor, in units of max(dP/dt) was used as a surrogate for contractility. The first change, a dobutamine injection, provided a very high contractility increase greater than 500%. The average correlation between right ventricle contractility and left ventricle contractility was very good at 0.91, where 1.00 is a perfect correlation. Accordingly, if a subject is given a dobutamine injection, measuring changes to right ventricle contractility can provide accurate information about changes to left ventricle contractility. The first change was repeated three times. The second change, calcium injection at 5 mL, provided a contractility increase of about 20%. […] The average correlation between right ventricle contractility and left ventricle contractility using a Millar (MEMS) sensor on a catheter was very good at 0.91. The average correlation between right ventricle contractility and left ventricle contractility using a fluid-filled lumen of a Swan-Ganz catheter in communication with an external pressure sensor was also very good at 0.87. Accordingly, under certain circumstances such as measurement of an animal (normal, non-HF ovine model) model, if a subject is given a calcium injection, measuring changes to right ventricle contractility with a MEMS sensor or a fluid filled lumen can provide accurate information about changes to left ventricle contractility.

Row | Compound | Contractility % Increase | Contractility % Increase (listed as dobutamine injection) | Contractility % Increase (listed as calcium injection)
1 | CC(CCc1ccc(O)cc1)NCCc1ccc(O)c(O)c1 (stereo not shown) [Dobutamine Injection, dobutamine] | >500% | greater than 500% | 
2 | calcium [Calcium Injection] | ~20% |  | about 20%
